Assay results: patent US9205050B2, “Antibiotic formulations, unit doses, kits and methods” (Bayer Intellectual Property GmbH, priority 2005, dated 2015)
Counter-ions that a name gives are not always drawn. Like-named read-outs stand apart in the source and are kept apart here. Values belong to the compound of their own block, whether it stands above or below them.

Legend:
[1] = solubility study of Vancomycin HCl in water (saturated solution, UV 280 nm); assay type: physicochemical; details: thermodynamic from solid, water for injection, stirred 48 h, filtered, read-out: maximum solubility in water
Method: A saturated solution of Vancomycin HCl in water for injection was prepared by adding under stirring the active agent to the solvent.
Suspension was stirred for 48 h in order to reach the equilibrium conditions for the dissolution.
Suspensions was filtered first through a paper filter and then through a 0.45 μm PVDF filter discarding the first drops of solution which could have been diluted because of the binding of the product to the membrane.
The filtrated solutions of Vancomycin HCl in water coming from the respective saturated solutions, was diluted to reach a final concentration which gave an Abs value at λ=280 nm included into the calibration curve.
Each diluted solution was analysed in triplicate with UV at λ=280 nm. For each solution the absorbances have been mediated and the final value has been substituted in the respective calibration curve equation to calculate the concentration.

[2] = pH of Vancomycin HCl solutions, bulk solution and reconstituted lyophilizate; assay type: physicochemical
Method: […] On the final solution, pH and density were measured and appearance was evaluated. After lyophilization the following analyses were performed on the final product: • water content by Karl Fischer titration; • appearance of the cake, • reconstitution time, • appearance/clarity, • pH after reconstitution.

[3] = density of Vancomycin HCl solutions; assay type: physicochemical
Method: On the final solution, pH and density were measured and appearance was evaluated. […]

[4] = particle size distribution of nebulized aerosol, laser diffraction; assay type: physicochemical; details: solutions in WFI 60 to 140 mg/ml, fill 2 to 4 ml
CD rats = test: 14-consecutive day nose-only inhalation toxicity and recovery; assay type: in vivo, rat
Method: This Example involved evaluating the potential toxicity and recovery resulting from a 14-consecutive day, nose-only inhalation administration of vancomycin hydrochloride (vancomycin) to CD rats.
The solution was used to generate aerosolized vancomycin for all vancomycin exposure groups.
Nose-only exposures were conducted in a “flow-past” cylindrical inhalation chamber placed inside a steel-framed Plexiglas secondary containment box. The chamber contained 48 animal ports, each compatible with a single nose-only exposure tube, aerosol concentration sampling device (e.g., filter), or oxygen monitor.
The total air flow through the exposure system was balanced to achieve individual animal port flows of ˜500 mL/min (port flow approximated based on total chamber flow). Measured flows included sample flow rate, nebulizer flow rate, dilution flow rate (chamber make-up air), and chamber exhaust flow.
Vancomycin solution was aerosolized with two Aerotech II nebulizers operated at 20 psi driving pressure. The target aerosol Vancomycin concentration for all exposure levels was ˜1.0 mg/L.
Aerosolized vancomycin was administered to 3 groups of male and female CD rats (available from Charles River Laboratories, Kingston, N.Y.) for durations of 30 min (Low), 90 min (Mid), and 180 min (High). A control group was exposed for 180 min to aerosols generated from a normal saline solution. Groups of rats from the Control and High level 14-day exposures were also studied following a 14-day recovery period. Endpoints included clinical observations, body weights, clinical pathology (hematology, clinical chemistry), urinalyses, organ weights, and histopathology.

[5] = 14-consecutive day face mask inhalation toxicity and recovery; assay type: in vivo, dog; details: both sexes, beagle, dog, in vivo, inhaled, high exposure level (60 min)
Method: (§1) This Example involved evaluating the potential toxicity and recovery resulting from a 14-consecutive day, face mask inhalation administration of vancomycin hydrochloride to beagle dogs.
(§2) Within 2 hours prior to usage, a vancomycin nebulizer solution having a concentration of 120 mg/ml was formed by dissolving vancomycin hydrochloride (available from Alpharma, Copenhagen, Denmark) in sterile water for injection USP (available from B. Braun Medical Inc., Bethlehem, Pa.). The solution was used to generate aerosolized vancomycin for all vancomycin exposure groups.
(§3) The exposure system consisted of a single, cylindrical, plexiglass inhalation chamber (volume of ˜23.7 L, 14.61-cm radius, 35.56-cm height). The chamber was supplied with two Aerotech II nebulizers operated at ˜40 psi. Nebulized test article and nebulizer air supply was diluted with ˜10 L/min HEPA-filtered dilution air. The flow through the system was ˜36 L/min.
(§4) The aerosolized vancomycin was administered via a face mask to 3 groups of male and female beagle dogs for durations of 15 min (Low), 30 min (Mid), and 60 min (High). A control group was exposed for 60 min to aerosols generated from normal saline solution, i.e., 0.9% sodium chloride injection USP (available from B. Braun Medical Inc.).
(§5) Groups of dogs from the Control and High level 14-day exposures were also studied following a 14-day recovery period. Endpoints for all groups of dogs included physical examinations, clinical observations, body weights, opthalmology, cardiovascular EKG, clinical pathology (hematology, clinical chemistry), urinalyses, organ weights, histopathology, and toxicokinetics.

beagle dogs = test: as above; assay type: in vivo, dog
Method: as §1, §2, §3, §4, §5

[6] = osmolality of gentamicin sulfate solutions; assay type: physicochemical
Method: Solubility in water was determined via visual assessment. Osmolality and pH were also determined. […] The solubility was determined by visual assessment.

[7] = exposure aerosol from 120 mg/ml solution

Compound: CN[C@H](CC(C)C)C(=O)N[C@H]1C(=O)N[C@@H](CC(N)=O)C(=O)N[C@H]2C(=O)N[C@H]3C(=O)N[C@H](C(=O)N[C@H](C(=O)O)c4cc(O)cc(O)c4-c4cc3ccc4O)[C@H](O)c3ccc(c(Cl)c3)Oc3cc2cc(c3O[C@@H]2O[C@H](CO)[C@@H](O)[C@H](O)[C@H]2O[C@H]2C[C@](C)(N)[C@H](O)[C@H](C)O2)Oc2ccc(cc2Cl)[C@H]1O [Vancomycin HCl, vancomycin hydrochloride]
solubility at 48 h [1]: 141 mg/mL
pH ([2]; 100.12 mg/mL in water): 3.8-4.1
pH ([2]; 110.16 mg/mL in water): 3.7-3.9
pH ([2]; 120.26 mg/mL in water): 3.6-3.8
pH ([2]; 130.5 mg/mL in water): 3.5-3.7
pH ([2]; 140.8 mg/mL in water): 3.4-3.5
Density ([3]; 100.12 mg/mL in water): 1.027 g/mL
Density ([3]; 110.16 mg/mL in water): 1.034 g/mL
Density ([3]; 120.26 mg/mL in water): 1.037 g/mL
Density ([3]; 130.5 mg/mL in water): 1.042 g/mL
Density ([3]; 140.8 mg/mL in water): 1.046 g/mL
volume weighted median size [4]: 2-3 μm
no observed effect level (CD rats; 14-day inhalation): not established
tolerability of exposures (CD rats; 30, 90, 180 min/day, 14 days, about 1.2 mg/L): well-tolerated
lung weight increase (CD rats; High exposure level (180 min)): ~19 % of control
lung weight increase (CD rats; Low exposure level (30 min)): approximately 8 % of control
increase in aspartate aminotransferase (AST) values (CD rats; Mid and High exposure levels): 28-46%
neutrophils (hematology) (CD rats; Mid and High exposure levels): statistically significant increase
lung weight increase (CD rats; Mid exposure level (90 min)): ~20 % of control
histopathologic findings after recovery (CD rats; after 14 days of recovery, High level): substantial diminution of these findings
body weight (CD rats; all exposure levels): no vancomycin treatment related effects
clinical observations (CD rats; all exposure levels): no vancomycin related effects
serum indicators of kidney function or urinalysis (CD rats; all exposure levels): No vancomycin related changes
survival (CD rats; all exposure levels, 14 days): All rats survived to scheduled necropsy
exposure related histopathologic findings (CD rats; end of 14-day exposure): limited to the respiratory tract
mean particle size, mass median aerodynamic diameter (CD rats; [7]): 2.0-2.6 μm
NOAEL at 14 days ([5]; read-out: no observed adverse effect level (NOAEL), deposited lung dose): 9 mg/kg
NOAEL at 14 days ([5]; read-out: no observed adverse effect level (NOAEL), inhaled dose): 45 mg/kg
recovery of histopathological effects (beagle dogs; 14-day recovery, High level): complete after 14 days
tolerability of exposures (beagle dogs; 15, 30, 60 min/day, 14 days, about 1.4-1.5 mg/L): well-tolerated
physical examinations, clinical observations, opthalmology, ECG, hematology, clinical chemistry, urinalyses, gross necropsy, organ weights (beagle dogs; all exposure levels): no vancomycin related effects
survival (beagle dogs; all exposure levels, 14 days): All dogs survived to scheduled necropsy
effects of exposure in histopathology (beagle dogs; end of 14-day exposure): limited to microscopic findings in the lung
mean particle size, mass median aerodynamic diameter (beagle dogs; [7]): 1.9-2.6 μm

Osmolality ([6]; 20 mg/ml active in 0.9% saline): 318 mOsmol/kg
Osmolality ([6]; 20 mg/ml active in WFI): 61 mOsmol/kg
Osmolality ([6]; 40 mg/ml active in 0.9% saline): 353 mOsmol/kg
Osmolality ([6]; 40 mg/ml active in WFI): 101 mOsmol/kg
Osmolality ([6]; 80 mg/ml active in 0.9% saline): 445 mOsmol/kg
Osmolality ([6]; 80 mg/ml active in WFI): 197 mOsmol/kg
Osmolality ([6]; 120 mg/ml active in WFI): 275 mOsmol/kg
Osmolality ([6]; 200 mg/ml active in WFI): 524 mOsmol/kg
Osmolality ([6]; 250 mg/ml active in WFI): 1178 mOsmol/kg
Osmolality ([6]; 300 mg/ml active in WFI): 2013 mOsmol/kg
Compound: gentamicin sulfate
